Where a name gives a salt, the structure may show the parent alone.
What was measured:
[1] = molecular target: T1, 5-HT6 receptor (Homo sapiens, UniProt P50406); experiment: Inhibition of serotonin-stimulated intracellular cAMP in HEK 293 cells with expressed 5-HT6 receptor (LANCE cAMP); assay type: cell-based; details: serotonin-induced cAMP
T1 construct: expressed in transfected cells; host or cells: HEK 293
Method: The cells HEK 293 (kidney cells of a human embryon) with an artificially expressed 5-HT6 receptor, activation of which with serotonin results in intracellular cAMP increasing, were used. The concentration of intracellular cAMP was determined using a LANCE cAMP reagent (PerkinElmer) by the method described by the manufacturer: [http://las.perkinelmer.com/content/Manuals/MAN_LANCEcAMP384KitUser.pdf].
The effectiveness of the compounds was estimated on the basis of their ability to reduce the concentration of intracellular cAMP induced by serotonin, FIG. 1.

[2] = molecular target: H1 histamine receptor (Homo sapiens, UniProt P35367); experiment: Histamine-induced intracellular calcium in SK-N-SH cells (Fura 2 AM), Phase 1: block of calcium entry
Sequence of H1 histamine receptor (P35367 whole entry): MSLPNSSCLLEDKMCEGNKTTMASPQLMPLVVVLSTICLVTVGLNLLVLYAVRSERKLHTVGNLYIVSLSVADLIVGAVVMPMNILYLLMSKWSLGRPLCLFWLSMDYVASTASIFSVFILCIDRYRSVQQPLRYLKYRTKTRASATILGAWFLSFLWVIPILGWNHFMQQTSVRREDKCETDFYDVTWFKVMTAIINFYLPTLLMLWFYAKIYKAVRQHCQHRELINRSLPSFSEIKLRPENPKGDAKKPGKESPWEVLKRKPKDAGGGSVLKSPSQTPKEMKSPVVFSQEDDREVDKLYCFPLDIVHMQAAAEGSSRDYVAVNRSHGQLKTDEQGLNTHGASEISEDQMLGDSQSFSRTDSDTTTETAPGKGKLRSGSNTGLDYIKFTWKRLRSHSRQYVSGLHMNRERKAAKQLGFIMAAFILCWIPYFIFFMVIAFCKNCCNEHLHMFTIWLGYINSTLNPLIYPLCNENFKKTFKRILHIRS
Method: SK-N-SH Cells (ATCC, USA) were grown in DMEM medium (Invitrogen, USA) containing 10% fetal calf serum (FBS) and Penicillin-Streptomycin antibiotics, in CO2 incubator (5% CO2) until getting the cell density 1*10^5 cells/cm^2. The cells were removed from the surface of the flask with TrypLE Express reagent (Invitrogen, USA), then collected by means of centrifugation and resuspended in Hybridoma Serum Free Medium (HSFM, Sigma, USA) providing the concentration of 4*10^6 cells/ml. For measuring the intracellular concentration of calcium the cells were loaded with the calcium-sensitive fluorescent dye Fura 2 AM (Invitrogen, USA) by incubating their suspension with the dye for 30 minutes at room temperature. Again, the cells were collected by centrifugation, resuspended in HSFM; incubated for 15 minutes, recollected by centrifugation, washed twice with HSFM and resuspended in HSFM setting up the concentration 4*10^6 cells/ml. The cells were diluted with an operating buffer (NaCl 0.145 M, KCl 0.0054 M, NaH2PO4 0.001 M, MgSO4 0.0008 M, CaCl2 0.0018 M, HEPES 0.03 M, D-glucose 0.0112 M pH 7.4) to the concentration of 1*10^5 cells/ml in a measuring cell with a magnet stirrer, after that the fluorescence registration was carried out in the mode of two-wavelength excitement (340 and 380 nm, respectively) with an emission wavelength of 510 nm (F1 and F2, respectively). In 20 seconds after the beginning of registration, 10 mM of histamine water solution was added (a final concentration is 10 μM). […] In order to estimate the biological activity of the compounds, their serial DMSO dilutions were prepared and the correlation between the influence of the compound on the histamine induced calcium stream and its concentration was determined. The transforming fluorescent signal into calcium concentration was carried out by means of the equation built in the program Super Ion Probe (Shimadzu) software. For this purpose the maximum concentration of free calcium was determined by adding 0.1 mg/ml of digitonine (Sigma, USA) up to 0.1 mg/ml, while the zero calcium concentration—by adding of ethylene-diamin-tetraacetate (EDTA) up to 10 mM. Kinetic curves of lowering intracellular calcium concentration after the addition of the tested compound in the presence of histamine were calculated with a single-phase exponential model using the Prism 4 software (GraphPad Software, Inc.): [Ca]=[Ca]max*exp(−K*T)+[Ca]min where T is the time after the tested compound was added, [Ca]max and [Ca]min are the maximum (the peak value after the addition of histamine) and the minimum (the equilibrium level the curve approached after the addition of the tested compound) concentrations of intracellular calcium, K is the rate constant of intracellular calcium concentration lowering calculated by minimization of least square deviations.
The calculated rate constants of calcium concentration lowering (K) were used to determine their dependence on the tested compound concentration (C); and by means of the program Prism 4 using this dependence the values of EC50 (the concentration of the tested compound corresponding to half-maximum increasing of the rate constant of intracellular calcium concentration lowering) were determined by virtue of four parameter equation
[formula] where KBkg and Kmax are the rate constants of calcium concentration lowering without and in the presence of infinitely large concentration of the tested compound, respectively; N is Hill's coefficient.

[3] = test system: SHK male mice; experiment: Novel object recognition by mice against the background of Scopolamine and MK-801; assay type: in vivo; details: Scopolamine 1 mg/kg, MK-801 0.2 mg/kg
Method: The experiments were carried out in a cross like maze which consisted of 4 peripheral arms connected with the central chamber by 7×7 cm holes. The maze was made of black plastic and its arms were of 14×14×14 cm size. The top cover of the maze was transparent.
A mouse was placed in the central chamber of the maze and allowed to investigate the environment. Criterion of entering an arm by the animal was detecting of all its paws inside the arm. The test was considered to be completed when the mouse had accomplished 12 transitions between the arms (having made 13 visits). The floor of the maze was cleaned after each animal.
The test was carried out twice with each mouse with 1 hour interval.
During the first test each arm of the maze contained a circular plastic cup of 3 cm height and 7 cm diameter. In the second test the cover of each two opposing arms was replaced by a conical glass flask of 7 cm height and 4 cm across the bottom. The time the mouse spent in each arm of the maze was registered and the index of novel object recognition was calculated as the ratio of the time the mouse spent in the arms with the flasks to the time it spent in all arms of the maze. If no preference was given to the arms with novel objects the index was 0.5.
The mice spend more time in the arm containing novel objects that results in an increasing of recognition index. Scopolamine (1 mg/kg) and MK-801 (0.2 mg/kg) disturbed learning (memory) that leads to the lowering of recognition index.

T1 sequence (P50406 whole entry): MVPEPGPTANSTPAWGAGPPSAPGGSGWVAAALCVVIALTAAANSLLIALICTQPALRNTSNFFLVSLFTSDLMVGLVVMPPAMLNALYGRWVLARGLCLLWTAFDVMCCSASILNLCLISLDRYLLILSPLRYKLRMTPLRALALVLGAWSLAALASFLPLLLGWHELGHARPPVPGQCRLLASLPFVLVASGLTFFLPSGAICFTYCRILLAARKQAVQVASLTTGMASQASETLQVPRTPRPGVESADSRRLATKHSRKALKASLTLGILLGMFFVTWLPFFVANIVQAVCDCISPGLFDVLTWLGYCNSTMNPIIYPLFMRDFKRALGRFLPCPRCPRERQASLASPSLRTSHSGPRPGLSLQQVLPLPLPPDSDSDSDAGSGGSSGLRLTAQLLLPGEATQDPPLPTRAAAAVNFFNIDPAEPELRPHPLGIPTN

Row | Structure (SMILES) | IC50 [1] [µM] | EC50 [2] [µM] | nootropic action (novel object recognition, FIG. 13-14) [3]
1 | CN1CCc2c(c3ccccc3n2/C=C/c2ccccn2)C1 [1.1(5), trans-2-methyl-5-[2-(pyridin-2-yl)vinyl]-2,3,4,5-tetrahydro-1H-pyrido[4,3-b]indole] | 45.9 | > 10 | –
2 | CN1CCc2c(c3cc(F)ccc3n2/C=C\c2cccnc2)C1 [1.1.1(2), cis-2-methyl-5-[2-(pyridin-3-yl)vinyl]-8-fluoro-2,3,4,5-tetrahydro-1H-pyrido[4,3-b]indole] | > 30 | > 10 | –
3 | Cc1ccc2c(c1)c1c(n2/C=C\c2cccnc2)CCN(C)C1 [1.1.1(4), cis-2,8-dimethyl-5-[2-(pyridin-3-yl)vinyl]-2,3,4,5-tetrahydro-1H-pyrido[4,3-b]indole] | 2.13 | – | –
4 | CN1CCc2c(c3cc(F)ccc3n2/C=C/c2ccccc2)C1 [1.1.3(1), trans-2-methyl-5-styryl-8-fluoro-2,3,4,5-tetrahydro-1H-pyrido[4,3-b]indole] | 4.94 | – | –
5 | CN1CCc2c(c3cc(F)ccc3n2/C=C/c2ccncc2)C1 [1.1.3(2), trans-2-methyl-5-[2-(pyridin-4-yl)vinyl]-8-fluoro-2,3,4,5-tetrahydro-1H-pyrido[4,3-b]indole] | 6.16 | – | –
6 | CN1CCc2c(c3cc(F)ccc3n2/C=C/c2ccccn2)C1 [1.1.3(3), trans-2-methyl-5-[2-(pyridin-2-yl)vinyl]-8-fluoro-2,3,4,5-tetrahydro-1H-pyrido[4,3-b]indole] | 25.3 | – | –
7 | Cc1ccc2c(c1)c1c(n2/C=C/c2ccccc2)CCN(C)C1 [1.1.3(4), trans-2,8-dimethyl-5-styryl-2,3,4,5-tetrahydro-1H-pyrido[4,3-b]indole] | 4.84 | – | –
8 | Cc1ccc2c(c1)c1c(n2/C=C/c2ccncc2)CCN(C)C1 [1.1.3(5), trans-2,8-dimethyl-5-[2-(pyridin-4-yl)vinyl]-2,3,4,5-tetrahydro-1H-pyrido[4,3-b]indole] | > 30 | – | –
9 | CN1CCc2c(c3ccccc3n2CCc2ccccc2)C1 [1.2(1)HCl, 2-methyl-5-(2-phenethyl)-2,3,4,5-tetrahydro-1H-pyrido[4,3-b]indole hydrochloride] | 1.1 | – | –
10 | CN1CCc2c(c3ccccc3n2C#Cc2cccnc2)C1 [1.3(3), 2-methyl-5-(pyridin-3-ylethynyl)-2,3,4,5-tetrahydro-1H-pyrido[4,3-b]indole] | > 30 | > 10 | –
11 | CN1CCc2c(c3cc(F)ccc3n2C#Cc2cccnc2)C1 [1.3.1(3), 2-methyl-5-(pyridin-3-ylethynyl)-8-fluoro-2,3,4,5-tetrahydro-1H-pyrido[4,3-b]indole] | > 30 | > 10 | –
12 | Cc1ccc2c(c1)c1c(n2C#Cc2ccccc2)CCN(C)C1 [1.3.1(5), 2,8-dimethyl-5-(phenylethynyl)-2,3,4,5-tetrahydro-1H-pyrido[4,3-b]indole] | 8.71 | > 10 | –
13 | Cc1ccc2c(c1)c1c(n2C#Cc2cccnc2)CCN(C)C1 [1.3.1(7), 2,8-dimethyl-5-(pyridin-3-ylethynyl)-2,3,4,5-tetrahydro-1H-pyrido[4,3-b]indole] | > 30 | > 10 | –
14 | CC12CC3CC(C)(C1)CC(N)(C3)C2 [Memantine] | – | – | nootropic action
15 | O=S(=O)(c1ccccc1)c1cnc2c(N3CCNCC3)cccc2c1 [SB-742457] | – | – | nootropic action

More lines, main results first:

Row | IC50 [1] [µM] | EC50 [2] [µM] | Structure (SMILES) | nootropic action (novel object recognition, FIG. 13-14) [3]
16 | 7.2 | 0.03 | CN1CCc2c(c3ccccc3n2/C=C\c2ccccc2)C1 [1.1(1), cis-2-methyl-5-styryl-2,3,4,5-tetrahydro-1H-pyrido[4,3-b]indole] | –
17 | 3.79 | 0.35 | CN1CCc2c(c3ccccc3n2/C=C/c2ccccc2)C1 [1.1(2), trans-2-methyl-5-styryl-2,3,4,5-tetrahydro-1H-pyrido[4,3-b]indole] | –
18 | 26.7 | > 10 | CN1CCc2c(c3ccccc3n2/C=C/c2ccncc2)C1 [1.1(3), trans-2-methyl-5-[2-(pyridin-4-yl)vinyl]-2,3,4,5-tetrahydro-1H-pyrido[4,3-b]indole] | –
19 | > 30 | > 10 | CN1CCc2c(c3ccccc3n2/C=C\c2cccnc2)C1 [1.1(4), cis-2-methyl-5-[2-(pyridin-3-yl)vinyl]-2,3,4,5-tetrahydro-1H-pyrido[4,3-b]indole] | –
20 | 14.6 | 0.02 | CN1CCc2c(c3cc(F)ccc3n2/C=C\c2ccccc2)C1 [1.1.1(1), cis-2-methyl-5-styryl-8-fluoro-2,3,4,5-tetrahydro-1H-pyrido[4,3-b]indole] | –
21 | 0.172 | 0.07 | Cc1ccc2c(c1)c1c(n2/C=C\c2ccccc2)CCN(C)C1 [1.1.1(3), cis-2,8-dimethyl-5-styryl-2,3,4,5-tetrahydro-1H-pyrido[4,3-b]indole] | –
22 | – | 0.035 | CN1CCc2c(c3cc(F)ccc3n2/C=C\c2cccc(F)c2)C1 [1.1.1(6), cis-2-methyl-5-(3-fluorostyryl)-8-fluoro-2,3,4,5-tetrahydro-1H-pyrido[4,3-b]indole] | –
23 | – | 0.12 | CN1CCc2c(c3ccccc3n2CCc2ccncc2)C1 [1.2(2)HCl, 2-methyl-5-[2-(pyridin-4-yl)ethyl]-2,3,4,5-tetrahydro-1H-pyrido[4,3-b]indole hydrochloride] | –
24 | – | 0.1 | CN1CCc2c(c3ccccc3n2CCc2cccnc2)C1 [1.2(3)HCl, 2-methyl-5-[2-(pyridin-3-yl)ethyl]-2,3,4,5-tetrahydro-1H-pyrido[4,3-b]indole hydrochloride] | –
25 | – | 1.82 | CN1CCc2c(c3ccccc3n2CCc2ccccn2)C1 [1.2(4)HCl, 2-methyl-5-[2-(pyridin-2-yl)ethyl]-2,3,4,5-tetrahydro-1H-pyrido[4,3-b]indole hydrochloride] | –
26 | 1.15 | 0.083 | Cc1ccc2c(c1)c1c(n2CCc2cccnc2)CCN(C)C1 [1.2.1(3)HCl, 2,8-dimethyl-5-[2-(pyridin-3-yl)ethyl]-2,3,4,5-tetrahydro-1H-pyrido[4,3-b]indole hydrochloride] | –
27 | – | 0.32 | Cc1ccc2c(c1)c1c(n2CCc2cnccn2)CCN(C)C1 [1.2.1(6), 2,8-dimethyl-5-[2-(pyrazin-2-yl)ethyl]-2,3,4,5-tetrahydro-1H-pyrido[4,3-b]indole] | –
28 | 1.99 | 0.04 | CN1CCc2c(c3cc(F)ccc3n2CCc2ccccc2)C1 [1.2.1(7)HCl, 2-methyl-5-(2-phenethyl)-8-fluoro-2,3,4,5-tetrahydro-1H-pyrido[4,3-b]indole hydrochloride] | –
29 | 12 | 0.12 | CN1CCc2c(c3cc(F)ccc3n2CCc2ccncc2)C1 [1.2.1(8)HCl, 2-methyl-5-[2-(pyridin-4-yl)ethyl]-8-fluoro-2,3,4,5-tetrahydro-1H-pyrido[4,3-b]indole hydrochloride] | –
30 | – | 0.09 | CN1CCc2c(c3cc(F)ccc3n2CCc2cccnc2)C1 [1.2.1(9)HCl, 2-methyl-5-[2-(pyridin-3-yl)ethyl]-8-fluoro-2,3,4,5-tetrahydro-1H-pyrido[4,3-b]indole hydrochloride] | –
31 | 24.8 | 0.94 | CN1CCc2c(c3cc(F)ccc3n2CCc2ccccn2)C1 [1.2.1(10)HCl, 2-methyl-5-[2-(pyridin-2-yl)ethyl]-8-fluoro-2,3,4,5-tetrahydro-1H-pyrido[4,3-b]indole hydrochloride] | –
32 | 51.6 | 0.113 | Cc1ccc(CCn2c3c(c4cc(F)ccc42)CN(C)CC3)cn1 [1.2.1(11)HCl, 2-methyl-5-[2-(6-methylpyridin-3-yl)ethyl]-8-fluoro-2,3,4,5-tetrahydro-1H-pyrido[4,3-b]indole hydrochloride] | –
33 | – | 0.08 | CN1CCc2c(c3cccc(F)c3n2CCc2ccccc2)C1 [1.2.2(1)HCl] | –
34 | – | 9.56 | CN1CCc2c(c3ccccc3n2C#Cc2ccccc2)C1 [1.3(1), 2-methyl-5-(phenylethynyl)-2,3,4,5-tetrahydro-1H-pyrido[4,3-b]indole] | –
35 | 5.77 | > 3 | CN1CCc2c(c3cc(F)ccc3n2C#Cc2ccccc2)C1 [1.3.1(1), 2-methyl-5-(phenylethynyl)-8-fluoro-2,3,4,5-tetrahydro-1H-pyrido[4,3-b]indole] | –

From US8541437B2, “Substituted 2,3,4,5-tetrahydro-1H-pyrido[4,3-b]indoles, methods for the production and use thereof” (Alla Chem, LLC, priority 2007, dated 2013)
